According to PubChem BioAssay AID220 (DTP/NCI, 2004):
Where “and” joins values, the source holds several entries; their conditions need not be identical. Identical values can stand only once. Inconclusive results are not listed. Positions of bridges follow the written chain, without caps; N, C: chain ends. Non-standard residues stand in square brackets, D forms with d. Residues, ends and D or L forms follow the SMILES beside them. Chains are numbered I, II in the order given. *: point of attachment. Quinoxaline2carbonyl = O=C(c1cnc2ccccc2n1)*; NMeV = CN[CH](C(=O)O)C(C)C; NMeC = CN[CH](CS)C(=O)O

Tested on: CD8F1 mice, subcutaneous mammary adenocarcinoma, T/C%
Experiment: NCI In Vivo Anticancer Drug Screen. Data for tumor model Mammary Adenocarcinoma CD8F1 (subcutaneous) in CD8F1
Details: higher = larger tumour
Procedure, shortened: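 Transplantable tumors were established in mice, animals were dosed with compound or vehicle, and survival or tumor size was then measured in both groups. The treated result was divided by the control result.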

[1] = endpoint: median tumor weight (est.), dose: 12.5 mg/kg/injection, schedule: Q07DX005 (ip), vehicle: saline with Tween-80
[2] = endpoint: median tumor weight (est.), dose: 25.0 mg/kg/injection, schedule: Q07DX005 (ip), vehicle: saline with Tween-80
[3] = endpoint: median tumor weight (est.), dose: 50.0 mg/kg/injection, schedule: Q07DX005 (ip), vehicle: saline with Tween-80
[4] = endpoint: median tumor weight (est.), dose: 100.0 mg/kg/injection, schedule: Q07DX005 (ip), vehicle: saline with Tween-80
[5] = endpoint: median tumor weight (est.), dose: 200.0 mg/kg/injection, schedule: Q07DX005 (ip), vehicle: saline with Tween-80
[6] = endpoint: median tumor weight (est.), dose: 400.0 mg/kg/injection, schedule: Q07DX005 (ip), vehicle: saline with Tween-80
[7] = endpoint: median tumor weight (est.), dose: 12.5 mg/kg/injection, schedule: Q07DX005 (ip), vehicle: Klucel (hydroxypropylcellulose) (HPC)
[8] = endpoint: median tumor weight (est.), dose: 25.0 mg/kg/injection, schedule: Q07DX005 (ip), vehicle: Klucel (hydroxypropylcellulose) (HPC)
[9] = endpoint: median tumor weight (est.), dose: 50.0 mg/kg/injection, schedule: Q07DX005 (ip), vehicle: Klucel (hydroxypropylcellulose) (HPC)
[10] = endpoint: median tumor weight (est.), dose: 100.0 mg/kg/injection, schedule: Q07DX005 (ip), vehicle: Klucel (hydroxypropylcellulose) (HPC)
[11] = endpoint: median tumor weight (est.), dose: 200.0 mg/kg/injection, schedule: Q07DX005 (ip), vehicle: Klucel (hydroxypropylcellulose) (HPC)
[12] = endpoint: median tumor weight (est.), dose: 6.25 mg/kg/injection, schedule: Q07DX005 (ip), vehicle: Klucel (hydroxypropylcellulose) (HPC)

## CS(=O)(=O)Nc1ccc(C(=O)CCN2CCCCCC2)cc1
endpoint: median tumor weight change, dose: 125.0 mg/kg/injection, schedule: Q01DX001 (ip), vehicle: suspension in saline
  T/C: 157 % of control
endpoint: median tumor weight change, dose: 250.0 mg/kg/injection, schedule: Q01DX001 (ip), vehicle: suspension in saline
  T/C: 166 % of control
endpoint: median tumor weight change, dose: 500.0 mg/kg/injection, schedule: Q01DX001 (ip), vehicle: suspension in saline
  T/C: 92 % of control

## c1ccc2sc(SSN3CC4CCC(CC4)C3)nc2c1
[1]
  T/C: 26 % of control
[2]
  T/C: 33 % of control
[3]
  T/C: 101 % of control
[4]
  T/C: 81 % of control
[5]
  T/C: 62 % of control
[6]
  T/C: 53 % of control

## O=C(O)c1c2c(nc3ccccc13)Cc1ccccc1-2
[7]
  T/C: 96 % of control
endpoint: median tumor weight (est.), dose: 12.5 mg/kg/injection, schedule: Q07DX005 (ip), vehicle: water
  T/C: 6 % of control
[8]
  T/C: 119 % of control
endpoint: median tumor weight (est.), dose: 25.0 mg/kg/injection, schedule: Q07DX005 (ip), vehicle: water
  T/C: 89 % of control
[9]
  T/C: 98 % of control
endpoint: median tumor weight (est.), dose: 50.0 mg/kg/injection, schedule: Q07DX005 (ip), vehicle: water
  T/C: 59 % of control
[10]
  T/C: 97 % of control
endpoint: median tumor weight (est.), dose: 100.0 mg/kg/injection, schedule: Q07DX005 (ip), vehicle: water
  T/C: 87 % of control
[11]
  T/C: 57 % of control
endpoint: median tumor weight (est.), dose: 200.0 mg/kg/injection, schedule: Q07DX005 (ip), vehicle: water
  T/C: 60 % of control

## Nc1c(C(=O)O)[nH]c(=O)[nH]c1=O
[1]
  T/C: 83 % of control

## CN=C(N)N/N=C(\C)c1ccc2oc3ccc(/C(C)=N/NC(N)=NC)cc3c2c1
endpoint: median tumor weight change, dose: 62.5 mg/kg/injection, schedule: Q01DX001 (ip), vehicle: saline with Tween-80
  T/C: 87 % of control
endpoint: median tumor weight change, dose: 125.0 mg/kg/injection, schedule: Q01DX001 (ip), vehicle: saline with Tween-80
  T/C: 63 % of control

## CC1NC(=O)C(NC(=O)c2cnc3ccccc3n2)COC(=O)C(C(C)C)N(C)C(=O)C2CSSCC(C(=O)N(C)C(C(C)C)C(=O)OCC(NC(=O)c3cnc4ccccc4n3)C(=O)NC(C)C(=O)N2C)N(C)C1=O (stereo not given) (I: Quinoxaline2carbonyl-SA[NMeC][NMeV] / II: Quinoxaline2carbonyl-SA[NMeC][NMeV]; ester I:1-II:C, I:C-II:1; disulfide I:3-II:3; configuration not given here)
endpoint: median tumor weight change, dose: 25.0 micrograms/kg/injection, schedule: Q01DX001 (ip), vehicle: Klucel (hydroxypropylcellulose) (HPC)
  T/C: 77 % of control
endpoint: median tumor weight change, dose: 50.0 micrograms/kg/injection, schedule: Q01DX001 (ip), vehicle: Klucel (hydroxypropylcellulose) (HPC)
  T/C: 91 % of control
endpoint: median tumor weight change, dose: 100.0 micrograms/kg/injection, schedule: Q01DX001 (ip), vehicle: Klucel (hydroxypropylcellulose) (HPC)
  T/C: 89 % of control
endpoint: median tumor weight change, dose: 200.0 micrograms/kg/injection, schedule: Q01DX001 (ip), vehicle: Klucel (hydroxypropylcellulose) (HPC)
  T/C: 68 % of control
endpoint: median tumor weight change, dose: 400.0 micrograms/kg/injection, schedule: Q01DX001 (ip), vehicle: Klucel (hydroxypropylcellulose) (HPC)
  T/C: 59 % of control

## CCC(C)C1NC(=O)C(CC(C)C)NC(=O)C(C(C)C)NC(=O)C2CSSCC(NC1=O)C(=O)N2 (stereo not given) (cyclo(CCVLI); disulfide 1-2; configuration not given here)
endpoint: median tumor weight change, dose: 0.31 mg/kg/injection, schedule: Q01DX001 (ip), vehicle: Klucel (hydroxypropylcellulose) (HPC)
  T/C: 78 % of control
endpoint: median tumor weight change, dose: 0.62 mg/kg/injection, schedule: Q01DX001 (ip), vehicle: Klucel (hydroxypropylcellulose) (HPC)
  T/C: 118 % of control
endpoint: median tumor weight change, dose: 1.25 mg/kg/injection, schedule: Q01DX001 (ip), vehicle: Klucel (hydroxypropylcellulose) (HPC)
  T/C: 74 % of control
endpoint: median tumor weight change, dose: 2.5 mg/kg/injection, schedule: Q01DX001 (ip), vehicle: Klucel (hydroxypropylcellulose) (HPC)
  T/C: 94 % of control
endpoint: median tumor weight change, dose: 5.0 mg/kg/injection, schedule: Q01DX001 (ip), vehicle: Klucel (hydroxypropylcellulose) (HPC)
  T/C: 111 % of control

## COc1cc2c[n+](C)c3c4cc5c(cc4ccc3c2cc1OC)OCO5
endpoint: median tumor weight (est.), dose: 10.0 mg/kg/injection, schedule: Q07DX005 (ip), vehicle: saline with Tween-80
  T/C: 78 % of control
endpoint: median tumor weight (est.), dose: 40.0 mg/kg/injection, schedule: Q07DX005 (ip), vehicle: saline with Tween-80
  T/C: 31 % of control
endpoint: median tumor weight (est.), dose: 80.0 mg/kg/injection, schedule: Q07DX005 (ip), vehicle: saline with Tween-80
  T/C: 4 % of control

## CC(=O)OCc1cc(=O)n(C)c2c3c4c(cc12)c(C)cc(=O)n4CO3
[12]
  T/C: 42 % of control
[7]
  T/C: 66 % of control and 78 % of control
[10]
  T/C: 19 % of control and 43 % of control
[11]
  T/C: 22 % of control and 26 % of control

## CCOC(=O)C(N)CSC(=O)NC (stereo not given)
endpoint: median tumor weight change, dose: 100.0 mg/kg/injection, schedule: Q01DX001 (ip), vehicle: saline
  T/C: 115 % of control
endpoint: median tumor weight change, dose: 200.0 mg/kg/injection, schedule: Q01DX001 (ip), vehicle: saline
  T/C: 81 % of control
endpoint: median tumor weight change, dose: 250.0 mg/kg/injection, schedule: Q01DX001 (ip), vehicle: saline
  T/C: 91 % of control and 111 % of control
endpoint: median tumor weight change, dose: 400.0 mg/kg/injection, schedule: Q01DX001 (ip), vehicle: saline
  T/C: 86 % of control
endpoint: median tumor weight change, dose: 500.0 mg/kg/injection, schedule: Q01DX001 (ip), vehicle: saline
  T/C: 53 % of control and 74 % of control
endpoint: median tumor weight change, dose: 800.0 mg/kg/injection, schedule: Q01DX001 (ip), vehicle: saline
  T/C: 96 % of control

## O=NN(CCCl)C(=O)NCCO
endpoint: median tumor weight change, dose: 4.0 mg/kg/injection, schedule: Q01DX001 (ip), vehicle: water
  T/C: 92 % of control
endpoint: median tumor weight change, dose: 8.0 mg/kg/injection, schedule: Q01DX001 (ip), vehicle: water
  T/C: 86 % of control
endpoint: median tumor weight change, dose: 16.0 mg/kg/injection, schedule: Q01DX001 (ip), vehicle: water
  T/C: 58 % of control

## C=CCNc1ccc(C)cc1
[12]
  T/C: 73 % of control
[7]
  T/C: 77 % of control
[8]
  T/C: 80 % of control
[9]
  T/C: 57 % of control
[10]
  T/C: 88 % of control
[11]
  T/C: 62 % of control

## C1CN2CN3CCN(CN1C3)C2
endpoint: mean tumor weight, dose: 12.5 mg/kg/injection, schedule: Q07DX006 (ip), vehicle: saline
  T/C: 85 % of control
endpoint: mean tumor weight, dose: 25.0 mg/kg/injection, schedule: Q07DX006 (ip), vehicle: saline
  T/C: 104 % of control
endpoint: mean tumor weight, dose: 50.0 mg/kg/injection, schedule: Q07DX006 (ip), vehicle: saline
  T/C: 79 % of control
endpoint: mean tumor weight, dose: 100.0 mg/kg/injection, schedule: Q07DX006 (ip), vehicle: saline
  T/C: 26 % of control
endpoint: median tumor weight (est.), dose: 6.25 mg/kg/injection, schedule: Q07DX005 (ip), vehicle: saline
  T/C: 75 % of control
endpoint: median tumor weight (est.), dose: 12.5 mg/kg/injection, schedule: Q07DX005 (ip), vehicle: saline
  T/C: 107 % of control
endpoint: median tumor weight (est.), dose: 25.0 mg/kg/injection, schedule: Q07DX005 (ip), vehicle: saline
  T/C: 93 % of control
endpoint: median tumor weight (est.), dose: 50.0 mg/kg/injection, schedule: Q07DX005 (ip), vehicle: saline
  T/C: 82 % of control
endpoint: median tumor weight (est.), dose: 100.0 mg/kg/injection, schedule: Q07DX005 (ip), vehicle: saline
  T/C: 107 % of control
endpoint: median tumor weight (est.), dose: 200.0 mg/kg/injection, schedule: Q07DX005 (ip), vehicle: saline
  T/C: 67 % of control

## COC1=C(OC)C(=O)C(SC/C=C(\C)CCCC(C)CCCC(C)CCCC(C)C)=CC1=O (stereo not given)
[1]
  T/C: 164 % of control
[2]
  T/C: 110 % of control
[3]
  T/C: 32 % of control
[4]
  T/C: 68 % of control
[5]
  T/C: 85 % of control
[6]
  T/C: 52 % of control

## CC(=O)CC(c1ccccc1)c1c(O)c2ccccc2oc1=O (stereo not given)
endpoint: median tumor weight change, dose: 0.01 mg/kg/injection, schedule: Q01DX001 (ip), vehicle: Klucel (hydroxypropylcellulose) (HPC)
  T/C: 183 % of control
endpoint: median tumor weight change, dose: 0.02 mg/kg/injection, schedule: Q01DX001 (ip), vehicle: Klucel (hydroxypropylcellulose) (HPC)
  T/C: 157 % of control
endpoint: median tumor weight change, dose: 0.05 mg/kg/injection, schedule: Q01DX001 (ip), vehicle: Klucel (hydroxypropylcellulose) (HPC)
  T/C: 196 % of control
endpoint: median tumor weight change, dose: 0.1 mg/kg/injection, schedule: Q01DX001 (ip), vehicle: Klucel (hydroxypropylcellulose) (HPC)
  T/C: 203 % of control
endpoint: median tumor weight change, dose: 0.2 mg/kg/injection, schedule: Q01DX001 (ip), vehicle: Klucel (hydroxypropylcellulose) (HPC)
  T/C: 192 % of control
